Data from patent publication US6737383B1, “Herbicidal oxadiazolidines” (priority 1999, dated 2004).

Legend:
bedstraw = experiment: Test B pre/postemergence bedstraw; format: in vivo, Galium aparine; conditions: Preemergence
Method in brief: (§1)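 Herbicidal effect was estimated by eye on a ten-point control scale after plants spent twelve to sixteen days in a greenhouse following soil or foliar treatment. Foliar sprays targeted plants at one to four leaves; all doses were formulated in a non-phytotoxic solvent with surfactant.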

blackgrass = experiment: Test B pre/postemergence blackgrass; format: in vivo, Alopecurus myosuroides
Method in brief: as §1

surinam grass = experiment: Test B pre/postemergence surinam grass; format: in vivo, Brachiaria decumbens
Method in brief: as §1

cocklebur = experiment: Test B pre/postemergence cocklebur; format: in vivo, Xanthium strumarium
Method in brief: as §1

corn = experiment: Test B pre/postemergence corn; format: in vivo, Zea mays
Method in brief: as §1

crabgrass = experiment: Test B pre/postemergence crabgrass; format: in vivo, Digitaria sanguinalis
Method in brief: as §1

giant foxtail = experiment: Test B pre/postemergence giant foxtail; format: in vivo, Setaria faberii
Method in brief: as §1

morningglory = experiment: Test B pre/postemergence morningglory; format: in vivo, Ipomoea hederacea
Method in brief: as §1

pigweed = experiment: Test B pre/postemergence pigweed; format: in vivo, Amaranthus retroflexus
Method in brief: as §1

rape = experiment: Test B pre/postemergence rape; format: in vivo, Brassica napus
Method in brief: as §1

soybean = experiment: Test B pre/postemergence soybean; format: in vivo, Glycine max
Method in brief: as §1

sugar beet = experiment: Test B pre/postemergence sugar beet; format: in vivo, Beta vulgaris
Method in brief: as §1

velvetleaf = experiment: Test B pre/postemergence velvetleaf; format: in vivo, Abutilon theophrasti
Method in brief: as §1

wheat = experiment: Test B pre/postemergence wheat; format: in vivo, Triticum aestivum
Method in brief: as §1

wild oat = experiment: Test B pre/postemergence wild oat; format: in vivo, Avena fatua
Method in brief: as §1

purple nutsedge = experiment: Test B pre/postemergence purple nutsedge; format: in vivo, Cyperus rotundus
Method in brief: as §1

rice = experiment: Test B flood test rice; format: in vivo, Oryza sativa
Method in brief: (§2)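 Read-out is a visual response score from 0 (no effect) to 10 (complete control), assigned by comparison with untreated controls. Treatment was applied at the 2-leaf stage, and plants stayed in the greenhouse for twelve to sixteen days before scoring.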

smallflower flatsedge = experiment: Test B flood test smallflower flatsedge; format: in vivo, Cyperus difformis
Method in brief: as §2

duck salad = experiment: Test B flood test duck salad; format: in vivo, Heteranthera limosa
Method in brief: as §2

bamyardgrass = experiment: Test B flood test barnyardgrass; format: in vivo, Echinochloa crus-galli
Method in brief: as §2

[1] = Postemergence, Rate 125 g/ha, scale of 0 to 10 where 0 is no effect and 10 is complete control
[2] = Postemergence, Rate 250 g/ha, scale of 0 to 10, 0 is no effect, 10 is complete control
[3] = Postemergence, Rate 500 g/ha, scale of 0 to 10 where 0 is no effect and 10 is complete control
[4] = Preemergence, Rate 62 g/ha, scale 0 to 10 (0 no effect, 10 complete control)
[5] = Preemergence, Rate 125 g/ha, scale of 0 to 10 where 0 is no effect and 10 is complete control
[6] = Preemergence, Rate 500 g/ha, scale of 0 to 10 where 0 is no effect and 10 is complete control
[7] = Postemergence, Rate 62 g/ha, scale of 0 to 10, 0 is no effect, 10 is complete control
[8] = Rate 62 g/ha, flood test species, Pre-emergence, visual evaluation after twelve to sixteen days
[9] = Rate 125 g/ha, under heading Pre-emergence, flood test species, visual evaluation after twelve to sixteen days
[10] = Rate 250 g/ha, Pre-emergence (flood test species), scale 0 to 10, 0 is no effect, 10 is complete control
[11] = Rate 500 g/ha, Pre-emergence section of Table B, 0 to 10 scale (0 no effect, 10 complete control)

CC(C)N(C(=O)n1oc(=O)n(C(C)CBr)c1=O)c1ccc(F)cc1F (stereo not drawn) [Compound 594]
5: Plant response rating, Blackgrass (blackgrass; [1]) | Blackgrass plant response rating (blackgrass; [2]) | Plant response rating, Blackgrass (blackgrass; [3]) | Blackgrass plant response rating (blackgrass; [4]) | Blackgrass plant response rating (blackgrass; [5]) | B. signalgrass plant response rating (0 to 10 scale, 0 is no effect, 10 is complete control) (surinam grass; Preemergence, Rate 250 g/ha) | Crabgrass plant response rating (crabgrass; [7]) | Plant response rating, Sugarbeets (sugar beet; [1]) | Sugarbeets plant response rating (sugar beet; [2]) | Plant response rating, Sugarbeets (sugar beet; [3]) | Plant response rating, Velvetleaf (velvetleaf; [3]) | Plant response rating, Wild oats (wild oat; [6])
6: Giant foxtail plant response rating (giant foxtail; [7]) | Plant response rating, Morningglory (morningglory; [6]) | Plant response rating, Nutsedge (purple nutsedge; [6])
2: Bedstraw plant response rating (0 to 10 scale) (bedstraw; Rate 250 g/ha) | B. signalgrass plant response rating (surinam grass; [2]) | Plant response rating, Cocklebur (cocklebur; [6]) | Corn plant response rating (0 to 10 scale) (corn; Preemergence, Rate 250 g/ha) | Plant response rating, Morningglory (morningglory; [1]) | Morningglory plant response rating (morningglory; [2]) | Velvetleaf plant response rating (velvetleaf; [4]) | Plant response rating, Wheat (wheat; [6])
8: Plant response rating, Sugarbeets (sugar beet; [6])
4: Plant response rating, Cocklebur (cocklebur; [3]) | Plant response rating, Corn (corn; [6]) | Plant response rating, Redroot pigweed (pigweed; [3]) | Plant response rating, Soybean (soybean; [3]) | Plant response rating, Soybean (soybean; [6]) | Velvetleaf plant response rating (velvetleaf; [5])
0: Bedstraw plant response rating (bedstraw; Rate 62 g/ha, scale 0 to 10 (0 no effect, 10 complete control)) | Bedstraw plant response rating (bedstraw; Rate 125 g/ha, scale of 0 to 10 where 0 is no effect and 10 is complete control) | B. signalgrass plant response rating (surinam grass; [7]) | Plant response rating, B. signalgrass (surinam grass; [1]) | Cocklebur plant response rating (cocklebur; [7]) | Plant response rating, Cocklebur (cocklebur; [1]) | Cocklebur plant response rating (cocklebur; [5]) | Cocklebur plant response rating (0 to 10 scale) (cocklebur; Preemergence, Rate 250 g/ha) | Corn plant response rating (corn; [7]) | Plant response rating, Corn (corn; [1]) | Corn plant response rating (corn; [2]) | Plant response rating, Corn (corn; [3]) | Corn plant response rating (corn; [4]) | Corn plant response rating (corn; [5]) | Morningglory plant response rating (morningglory; [7]) | Morningglory plant response rating (morningglory; [4]) | Morningglory plant response rating (morningglory; [5]) | Plant response rating, Redroot pigweed (pigweed; [1]) | Redroot pigweed plant response rating (pigweed; [4]) | Redroot pigweed plant response rating (pigweed; [5]) | Rape plant response rating (rape; [7]) | Plant response rating, Rape (rape; [1]) | Rape plant response rating (rape; [2]) | Plant response rating, Rape (rape; [3]) | Rape plant response rating (rape; [4]) | Rape plant response rating (rape; [5]) | Plant response rating, Soybean (soybean; [1]) | Soybean plant response rating (soybean; [4]) | Soybean plant response rating (soybean; [5]) | Sugarbeets plant response rating (sugar beet; [4]) | Sugarbeets plant response rating (sugar beet; [5]) | Plant response rating, Wheat (wheat; [1]) | Wheat plant response rating (wheat; [2]) | Plant response rating, Wheat (wheat; [3]) | Wheat plant response rating (wheat; [4]) | Wheat plant response rating (wheat; [5]) | Plant response rating, Wild oats (wild oat; [1]) | Wild oats plant response rating (wild oat; [2]) | Plant response rating, Wild oats (wild oat; [3]) | Wild oats plant response rating (wild oat; [4]) | Wild oats plant response rating (wild oat; [5]) | Nutsedge plant response rating (purple nutsedge; [7]) | Plant response rating, Nutsedge (purple nutsedge; [1]) | Nutsedge plant response rating (purple nutsedge; [4]) | Nutsedge plant response rating (purple nutsedge; [5]) | Plant response rating, Rice (0 to 10 scale, 0 is no effect, 10 is complete control) (rice; [8]) | Rice plant response rating (0 to 10 scale, 0 is no effect, 10 is complete control) (rice; [9]) | Rice plant response rating (rice; [10]) | Rice plant response rating (rice; [11]) | Plant response rating, S. Flatsedge (0 to 10 scale, 0 is no effect, 10 is complete control) (smallflower flatsedge; [8]) | S. Flatsedge plant response rating (0 to 10 scale, 0 is no effect, 10 is complete control) (smallflower flatsedge; [9]) | S. Flatsedge plant response rating (smallflower flatsedge; [10]) | S. Flatsedge plant response rating (smallflower flatsedge; [11]) | Plant response rating, Ducksalad (0 to 10 scale, 0 is no effect, 10 is complete control) (duck salad; [8]) | Ducksalad plant response rating (0 to 10 scale, 0 is no effect, 10 is complete control) (duck salad; [9]) | Ducksalad plant response rating (duck salad; [10]) | Ducksalad plant response rating (duck salad; [11]) | Plant response rating, Barnyardgrass (0 to 10 scale, 0 is no effect, 10 is complete control) (bamyardgrass; [8]) | Barnyardgrass plant response rating (0 to 10 scale, 0 is no effect, 10 is complete control) (bamyardgrass; [9]) | Barnyardgrass plant response rating (bamyardgrass; [10]) | Barnyardgrass plant response rating (bamyardgrass; [11])
10: Plant response rating, Giant foxtail (giant foxtail; [6]) | Plant response rating, Redroot pigweed (pigweed; [6])
3: Plant response rating, B. signalgrass (surinam grass; [3]) | B. signalgrass plant response rating (surinam grass; [4]) | B. signalgrass plant response rating (surinam grass; [5]) | Cocklebur plant response rating (cocklebur; [2]) | Redroot pigweed plant response rating (pigweed; [2]) | Plant response rating, Velvetleaf (velvetleaf; [1]) | Velvetleaf plant response rating (velvetleaf; [2]) | Nutsedge plant response rating (purple nutsedge; [2]) | Plant response rating, Nutsedge (purple nutsedge; [3])
7: B. signalgrass plant response rating (surinam grass; [6]) | Plant response rating, Crabgrass (crabgrass; [1]) | Plant response rating, Giant foxtail (giant foxtail; [1]) | Giant foxtail plant response rating (giant foxtail; [2]) | Plant response rating, Morningglory (morningglory; [3]) | Plant response rating, Velvetleaf (velvetleaf; [6])
9: Bedstraw plant response rating (bedstraw; Rate 500 g/ha, scale of 0 to 10 where 0 is no effect and 10 is complete control) | Blackgrass plant response rating (0 to 10 scale) (blackgrass; Preemergence, Rate 250 g/ha) | Blackgrass plant response rating (blackgrass; [6]) | Crabgrass plant response rating (crabgrass; [2]) | Plant response rating, Crabgrass (crabgrass; [3]) | Crabgrass plant response rating (crabgrass; [4]) | Crabgrass plant response rating (crabgrass; [5]) | Plant response rating, Crabgrass (crabgrass; [6]) | Plant response rating, Giant foxtail (giant foxtail; [3]) | Giant foxtail plant response rating (giant foxtail; [4]) | Giant foxtail plant response rating (giant foxtail; [5]) | Plant response rating, Rape (rape; [6])
